Assay: Penetration of niacinamide and glycerin into silk artificial epidermis (cross-sectional Raman spectroscopy)
Assay type: in vitro ADME
Conditions: applied on surface for 30 min and 4 h
Procedure: LabRAM Soleil™ Raman spectroscopy was used to measure the penetration of compounds into the silk film. The silk artificial epidermis was first immersed in water for 10 min. Then, the silk artificial epidermis was taken out and wiped with a wiper to remove surface water. Next, niacinamide or glycerin was applied on the surface of the silk artificial epidermis and left to sit for 30 min or 4 h. Finally, the resultant sample was taken for cross-sectional Raman spectroscopy to determine the penetration of the chemicals into silk artificial epidermis.

SMILES	penetration depth into silk artificial epidermis
OCC(O)CO [glycerin]	penetrate into half-depth
NC(=O)c1cccnc1 [niacinamide]	penetrate into half-depth

— patent US20230131248A1, “A SKIN TEST PLATFORM FORMED FROM A COMPOSITE MATERIAL” (Nanyang Technological University, priority 2020, published 2023)
